Results published in ChEMBL document CHEMBL3272126 (J Med Chem, 1977).

Experiments:
[1] = tested on: Mus musculus; test: Toxicity in sc dosed albino mouse assessed as mydriasis; assay type: organism-based; conditions: in vivo
[2] = tested on: Mus musculus; test: Anti-tremorine activity against sc dosed albino mouse assessed as normalized dose for reversal of tremorine-induced spontaneous activity depression; assay type: functional

| Compound | ED50 [1] [mg/kg] | ND [2] [mg/kg] |
| --- | --- | --- |
| CN1[C@@H]2CC[C@H]1CC(OC(=O)[C@H](CO)c1ccccc1)C2 (stereo partly drawn) [ENDO-ATROPINE] | 0.061 | 2.2 |
| CN1[C@@H]2C[C@@H](OC(=O)[C@H](CO)c3ccccc3)C[C@H]1[C@@H]1O[C@@H]12 [SCOPOLAMINE] | 0.012 | 1.3 |
